From patent US6399654B1, “Biflavanoids and derivatives thereof as antiviral agents” (priority 1995, dated 2002)
Structures can show the parent of a compound that is named as a salt. Where two headings read alike, the source gives them in different places.

What was measured:
Hepatitis B Virus (HBV) [1] = test: HBV proteins and nucleic acids in 2.2.15 cells; type: cell-based; conditions: Day 9, 2.2.15 cells; robustaflavone @10 μM
Procedure: Values of HBV proteins were determined by semi-quantitative EIA performed as previously described.^83 For the EIA analyses, test samples-were diluted (2- to 10-fold) so that the assay values produced were within the linear dynamic range of the EIA assays. Standard curves using serial dilutions of positive assay controls were included in each set of EIA analyses. HBV surface antigen ([…]), preSI protein, and HBc antigen ([…]) are released as extracellular products and were therefore analyzed in culture medium obtained 24 h following the last treatment dose of oligonucleotides or 2′, 3′-ddc. HBV core antigen (HBcAg) is an intracellular viral protein and was assayed in cell extracts produced by Triton-X-100 lysis.^83
Cultures for HBV RNA were maintained on 6-well plates, cultures for HBV virion DNA analyses were maintained on either 96- or 24-well plates, and cultures for all other HBV parameters were maintained on 24-well plates.
The concentrations of antiviral agents used in these studies approximates the EC50 values of the individual agents against intracellular HBV DNA replication intermediates (HBV RI). Cultures were treated with the indicated agents for 9 days using standard procedures. Values reported are the levels of the indicated HBV markers at the end of the treatment period (“DAY 9”) expressed as a percentage (±standard deviation (S.D.) of the average levels in the control cultures at the beginning of the treatment period (“DAY 0”). The method of expression permits an analysis of the variation of the HBV markers in the untreated (control) cultures over the course of the treatment period. HBV nucleic acid levels were measured by standard blot hydridization (dot, Southern, or Northern). HBV protein levels were measured by standard semi-quantitative EIA methods. Cultures for HBV RNA were maintained in 6-well culture plates. The levels of each of two major classes of HBV RNA transcripts are listed separately. Cultures for all other HBV markers were maintained in 24-well culture plates. For each treatment, a total of 4 separate cultures were used for the analysis of each HBV marker at both DAY 0 and DAY 9.
Determination of Mechanism of Action. Measurements of intracellular and extracellular HBV DNA, 3.6 kb and 2.1 kb mRNA fragments, and HBsAg, HBeAg and HBcAg protein markers were conducted as previously described (93).

Hepatitis B Virus (HBV) [2] = test: Inhibition of HBV replication in 2.2.15 cells, extracellular (virion) HBV DNA; conditions: for SI (CC50/EC90), HBV Virion: selective index; for fold less active/potent than robustaflavone against HBV: in vitro assay against HBV;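 as to all read-outs here: extracellular virion HBV DNA in culture medium measured by slot blot hybridization with a 32P-labeled HBV probe, quantified against HBV DNA standards, after 9 days of daily dosing, compared with day 0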
Hepatitis B Virus (HBV) [3] = test: HBV replication intermediates (RI, intracellular HBV DNA) in 2.2.15 cells; type: cell-based
Procedure: Test compounds were added daily for a nine continuous day period; the culture medium was collected and stored for analysis of extracellular (virion) HBV DNA after 0, 3, 6, and 9 days of treatment. The treated cells were lysed 24 hours following day 9 of treatment for the analysis of intracellular HBV genomic forms. The overall levels of HBV DNA (both extracellular and intracellular DNA) and the relative rate of HBV replication (intracellular DNA) were analyzed quantitatively. The analysis was performed using blot hybridization techniques and [^32P]-labeled HBV-specific probes. The HBV DNA levels were measured by comparison to known amounts of HBV DNA standards applied to every nitrocellulose membrane (gel or slot blot). An AMBIS beta scanner, which measures the radioactive decay of the hybridized probes directly from the nitrocellulose membranes, was used for the quantitative analysis. Standard curves, generated by multiple analyses, were used to correlate CPM measurements made by the beta scanner with relative levels of target HBV DNA. The levels of HBV virion DNA released into the culture medium were analyzed by a slot blot hybridization procedure. HBV DNA levels were then compared to those at day 0 to determine the effect of the test compound. A known positive drug was evaluated in parallel with test compounds in each test.

HIV-1 RT = target: T1, HIV-1 RT (Human immunodeficiency virus type 1 group M subtype B, UniProt P03366); test: Anti-HIV-1 RT assay (recombinant enzyme); type: biochemical; conditions: for inhibition at 200 µg/mL: read-out: Anti-HIV-1 RT % Inhibition at 200 μg/ml
T1 construct: made in house; host or cells: Escherichia coli

HCMV = HCMV CPE inhibition in HFF cells; conditions: HFF Cells
[4] = read-out: EC50 (50% effective dose), HBV Virion, 2.2.15 cells, extracellular (virion) HBV DNA, 9 days treatment
[5] = read-out: EC90 (90% effective dose), HBV Virion, 2.2.15 cells, extracellular (virion) HBV DNA, 9 days treatment
[6] = Anti-HIV-1 RT IC50, values in parentheses or in words
[7] = values in parentheses or in words
[8] = HIV-1 RT IC50 (50% inhibition dose)

Compound: Nc1ccn([C@H]2CC[C@@H](CO)O2)c(=O)n1 [2′,3′-ddC, 2′,3′-dideoxycytosine, reference compound]
- Viral Antigens: HBeAg (Hepatitis B Virus (HBV) [1]): 88 ± 10 % of Day 0 Control
- Viral Antigens: HBsAg (Hepatitis B Virus (HBV) [1]): 90 ± 12 % of Day 0 Control
- Viral Antigens: HbcAG (Hepatitis B Virus (HBV) [1]): 91 ± 9 % of Day 0 Control
- Viral DNA: Extracellular DNA (Hepatitis B Virus (HBV) [1]): 1 ± 1 % of Day 0 Control
- Viral DNA: Intracellular DNA (Hepatitis B Virus (HBV) [1]): 6 ± 1 % of Day 0 Control
- Viral mRNA: 3.6 kb and 2.1 kb mRNA (first column) (Hepatitis B Virus (HBV) [1]): 94 ± 7 % of Day 0 Control
- Viral mRNA: 3.6 kb and 2.1 kb mRNA (second column) (Hepatitis B Virus (HBV) [1]): 87 ± 9 % of Day 0 Control
- EC50 (Hepatitis B Virus (HBV) [2]; [4]): 1.8 µM
- EC50 (Hepatitis B Virus (HBV) [2]; read-out: EC50, concentration necessary to decrease HBV DNA levels by 50%, 2.2.15 cells, combinations: with respect to RF): 1.4 µM
- EC90 (Hepatitis B Virus (HBV) [2]; [5]): 94 µM
- SI (CC50/EC90), HBV Virion (Hepatitis B Virus (HBV) [2]): 28
- EC50 (Hepatitis B Virus (HBV) [3]; 2.2.15 cells, read-out: EC50, HBV replication intermediates (RI) (intracellular DNA)): 2.4 µM

Compound: O=c1cc(-c2ccc(O)cc2)oc2cc(O)cc(O)c12 [Apigeriin, 4′,5,7-trihydroxyflavone, reference compound]
- activity against HIV-1 RT (in words) (HIV-1 RT): moderate activity
- IC50 (HIV-1 RT; [6]): 443 µM
- inhibition at 200 µg/mL (HIV-1 RT): 72%

Compound: COc1ccc(C2CC(=O)c3c(OC)cc(OC)c(C4C(=O)c5c(OC)cc(OC)cc5OC4c4ccc(OC)cc4)c3O2)cc1 (stereo not drawn) [GB-1a Me6(14), GB-1a hexamethyl ether]
- activity against HIV-1 RT (in words) (HIV-1 RT): inactive
- Anti-HIV-1 RT IC50 (HIV-1 RT; [7]): Inactive

Compound: O=C1C[C@@H](c2ccc(O)cc2)Oc2c1c(O)cc(O[C@@H]1O[C@H](CO)[C@@H](O)[C@H](O)[C@H]1O)c2[C@H]1C(=O)c2c(O)cc(O)cc2O[C@@H]1c1ccc(O)cc1 [GB-1a glucoside (15), GB-1a 7″-O-b-glucoside]
- activity against HIV-1 RT (in words) (HIV-1 RT): no activity
- Anti-HIV-1 RT % Inhibition at 200 μg/ml (HIV-1 RT): 1.46%
- Anti-HIV-1 RT IC50 (HIV-1 RT; [7]): Inactive

Compound: O=C1C[C@@H](c2ccc(O)c(O)c2)Oc2c1c(O)cc(O)c2[C@H]1C(=O)c2c(O)cc(O)cc2O[C@@H]1c1ccc(O)cc1 [GB-2a(16), GB-2a]
- HIV-1 RT IC50 (50% inhibition dose) (HIV-1 RT): 94.6 µg/mL
- Anti-HIV-1 RT % Inhibition at 200 μg/ml (HIV-1 RT): 96%
- IC50 (HIV-1 RT; values in parentheses or in words, read-out: Anti-HIV-1 RT IC50): 170 µM

Compound: Nc1nc2c(ncn2COC(CO)CO)c(=O)[nH]1 [GVC, reference compound]
- HCMV CPE Inhibition EC50 (HCMV): 0.4 µg/mL

Compound: O=C1CC(c2ccc(O)cc2)Oc2cc(O)cc(O)c21 (stereo not drawn) [Naringenin, 4′,5,7-trihydroxyflavanone, reference compound]
- activity against HIV-1 RT (in words) (HIV-1 RT): slight inhibition
- inhibition at 200 µg/mL (HIV-1 RT): 34.9%

Compound: CC(=O)Oc1ccc(-c2cc(=O)c3c(OC(C)=O)c(-c4cc(-c5cc(=O)c6c(OC(C)=O)cc(OC(C)=O)cc6o5)ccc4OC(C)=O)c(OC(C)=O)cc3o2)cc1 [Robustaflavone Hexaacetate, robustaflavone hexaacetate]
- fold less active/potent than robustaflavone against HBV (Hepatitis B Virus (HBV) [2]): approximately three-fold
- EC50 (Hepatitis B Virus (HBV) [2]; [4]): 0.73 µM
- EC90 (Hepatitis B Virus (HBV) [2]; [5]): 2.8 µM
- SI (CC50/EC90), HBV Virion (Hepatitis B Virus (HBV) [2]): > 360
- SI (CC50/EC90), second value in parentheses (Hepatitis B Virus (HBV) [3]; Table 2, value in parentheses, not explained): 163
- EC50 (Hepatitis B Virus (HBV) [3]; Table 2, value in parentheses, not explained, read-out: EC50, second value in parentheses): 3.9 µM
- EC90 (Hepatitis B Virus (HBV) [3]; Table 2, value in parentheses, not explained, read-out: EC90, second value in parentheses): 11 µM

Compound: COc1ccc(-c2cc(=O)c3c(OC)c(-c4cc(-c5cc(=O)c6c(OC)cc(OC)cc6o5)ccc4OC)c(OC)cc3o2)cc1 [Robustaflavone hexamethyl ether, hexa-O-methylrobustaflavone]
- fold less active/potent than robustaflavone against HBV (Hepatitis B Virus (HBV) [2]): ~10 fold
- EC50 (Hepatitis B Virus (HBV) [2]; [4]): 2.9 µM
- EC90 (Hepatitis B Virus (HBV) [2]; [5]): 28 µM
- SI (CC50/EC90), HBV Virion (Hepatitis B Virus (HBV) [2]): >36

Compound: O=c1cc(-c2ccc(OS(=O)(=O)O)c(-c3c(OS(=O)(=O)O)cc4oc(-c5ccc(OS(=O)(=O)O)cc5)cc(=O)c4c3O)c2)oc2cc(OS(=O)(=O)O)cc(O)c12 [Robustaflavone tetrasulfate (17), robustaflavone-7,4′,7″,4′″-tetrasulfate K-salt]
- anti-HBV activity (in words) (Hepatitis B Virus (HBV) [2]; 2.2.15 cells): extremely effective
- EC50 (Hepatitis B Virus (HBV) [2]; Hepatitis B virus, 216 h, read-out: EC50 (50% effective dose), HBV Virion, 2.2.15 cells, extracellular (virion) HBV DNA, 9 days treatment): 0.4 µM
- EC90 (Hepatitis B Virus (HBV) [2]; Hepatitis B virus, 216 h, read-out: EC90 (90% effective dose), HBV Virion, 2.2.15 cells, extracellular (virion) HBV DNA, 9 days treatment): 3.6 µM
- SI (CC50/EC90), HBV Virion (Hepatitis B Virus (HBV) [2]): 110
- IC50 (HIV-1 RT; [6]): 144 µM
- IC50 (HIV-1 RT; [8]): 168 µM
- inhibition at 200 µg/mL (HIV-1 RT): 95.5%

Compound: O=C1c2c(O)cc(O)cc2O[C@@H](c2ccc(O)cc2)[C@@H]1c1c(O)cc(O)c2c(=O)cc(-c3ccc(O)cc3)oc12 [Volkensiflavone (5), volkensiflavone]
- activity against HIV-1 RT (in words) (HIV-1 RT): weakly active
- inhibition at 200 µg/mL (HIV-1 RT): 45.3%

Compound: COc1cccc2c1C(=O)c1c(O)c3c(c(O)c1C2=O)C[C@@](O)(C(C)=O)C[C@@H]3O[C@H]1C[C@H](N)[C@H](O)[C@H](C)O1 [daunomycin, reference compound]
- IC50 (HIV-1 RT; [8]): 237 µM

Compound: COc1ccc([C@@H]2Oc3cc(OC)cc(OC)c3C(=O)[C@H]2c2c(OC)cc(OC)c3c(=O)cc(-c4ccc(OC)c(OC)c4)oc23)cc1 [morelloflavone heptamethyl ether (8), morelloflavone heptamethyl ether]
- activity against HIV-1 RT (in words) (HIV-1 RT): inactive
